Our source for the inhibition values is patent US10138260B2, “Compounds of phosphinanes and azaphosphinanes, a process for their preparation and pharmaceutical compositions containing them” (LES LABORATOIRES SERVIER, priority 2016, dated 2018).

By inhibition is commonly meant the change of the read-out against control, counted positive when it falls. High values mean a response far below the control, low ones a response near the control.

The target in the assay is T1, TAFIa (Homo sapiens, UniProt Q96IY4).
T1 sequence (Q96IY4 115-423): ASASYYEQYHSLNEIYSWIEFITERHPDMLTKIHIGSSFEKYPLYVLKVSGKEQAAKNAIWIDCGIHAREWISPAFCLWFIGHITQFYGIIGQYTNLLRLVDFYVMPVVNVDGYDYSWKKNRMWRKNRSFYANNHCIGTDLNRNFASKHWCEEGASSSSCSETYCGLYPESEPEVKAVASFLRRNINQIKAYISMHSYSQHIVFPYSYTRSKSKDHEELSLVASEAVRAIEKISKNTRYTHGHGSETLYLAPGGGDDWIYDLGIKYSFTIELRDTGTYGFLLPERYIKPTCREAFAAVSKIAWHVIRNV
Put plainly: Inhibition of TAFIa (hippuryl-Arg test). It is filed as biochemical. To be noted: TAFIa 2 nM, hippuryl-arginine 5 mM, 45 minutes, relative to control containing the carrier; for inhibition at 0.01 µM: compound at 10 nM; for inhibition at 0.02 µM: compound at 20 nM. The method, boiled down: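 TAFI (4 nM) activated 20 min by thrombin/thrombomodulin with 10 mM calcium, stopped with PPACK; TAFIa (2 nM) then incubated 45 min with compound and 5 mM hippuryl-arginine in Hepes buffer, pH 7.4, 28 °C. Absorbance at 405 nm, blank-corrected; % inhibition versus carrier at 10 and 20 nM.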

In turn, `COc1ccc(-c2cc(F)ccc2CN2CCP(=O)(O)[C@](CCCCN)(C(=O)O)C2)cn1` [Example 239, (3S)-3-(4-AMINOBUTYL)-1-[[4-FLUORO-2-(6-METHOXYPYRIDIN-3-YL)PHENYL]-METHYL]-4-HYDROXY-4-OXO-1,4-AZAPHOSPHINANE-3-CARBOXYLIC ACID] yielded an inhibition at 0.01 µM of 85% and an inhibition at 0.02 µM of 96%.

Turning to `NCCCC[C@@]1(C(=O)O)CN(Cc2ccccc2-c2cnc3ccccn23)CCP1(=O)O` [Example 237, (3S)-3-(4-AMINOBUTYL)-4-HYDROXY-1-[(2-IMIDAZO[1,2-A]PYRIDIN-3-YLPHENYL)METHYL]-4-OXO-1,4-AZAPHOSPHINANE-3-CARBOXYLIC ACID], the inhibition at 0.01 µM was determined as 77% and the inhibition at 0.02 µM was 84%.

For the molecule `Cc1ncc(-c2cc(O)ccc2CN2CCP(=O)(O)[C@](CCCCN)(C(=O)O)C2)n1C` [Example 249, (3S)-3-(4-AMINOBUTYL)-1-[[2-(2,3-DIMETHYLIMIDAZOL-4-YL)-4-HYDROXYPHENYL]METHYL]-4-HYDROXY-4-OXO-1,4-AZAPHOSPHINANE-3-CARBOXYLIC ACID], the inhibition at 0.01 µM turned out to be 88% and the inhibition at 0.02 µM is 94%.

In the case of `NCCCC[C@@]1(C(=O)O)CN(Cc2ccccc2-c2cccc(Cl)c2)CCP1(=O)O` [Example 194, (3S)-3-(4-AMINOBUTYL)-1-[[2-(3-CHLOROPHENYL)PHENYL]METHYL]-4-HYDROXY-4-OXO-1,4-AZAPHOSPHINANE-3-CARBOXYLIC ACID], the inhibition at 0.01 µM turned out to be 64% and the inhibition at 0.02 µM was 80%.

The molecule `NCCCC[C@@]1(C(=O)O)CN(Cc2ccccc2-c2cncnc2)CCP1(=O)O` [Example 182, (3S)-3-(4-AMINOBUTYL)-4-HYDROXY-4-OXO-1-[(2-PYRIMIDIN-5-YLPHENYL)-METHYL]-1,4-AZAPHOSPHINANE-3-CARBOXYLIC ACID] yielded an inhibition at 0.01 µM of 81% and an inhibition at 0.02 µM of 95%.

Molecule `NCCCC[C@@]1(C(=O)O)CN(Cc2ccc(F)cc2-c2ccc(O)nc2)CCP1(=O)O` [Example 241, (3S)-3-(4-AMINOBUTYL)-1-[[4-FLUORO-2-(6-HYDROXYPYRIDIN-3-YL)PHENYL]-METHYL]-4-HYDROXY-4-OXO-1,4-AZAPHOSPHINANE-3-CARBOXYLIC ACID] yielded an inhibition at 0.01 µM of 77% and an inhibition at 0.02 µM of 91%.

As to `Cc1ncc(-c2cc(F)ccc2CN2CCP(=O)(O)[C@](CCCCN)(C(=O)O)C2)n1C` [Example 219, (3S)-3-(4-AMINOBUTYL)-1-[2-(1,2-DIMETHYL-1H-IMIDAZOL-5-YL)-4-FLUOROBENZYL]-4-HYDROXY-4-OXO-1,4-AZAPHOSPHINANE-3-CARBOXYLIC ACID], testing at 0.01 µM gave an inhibition of 92% and 0.02 µM produced 98% inhibition.

With `NCCCC[C@@]1(C(=O)O)CN(Cc2ccc(F)cc2-c2ccccc2Cl)CCP1(=O)O` [Example 206, (3S)-3-(4-AMINOBUTYL)-1-[[2-(2-CHLOROPHENYL)-4-FLUOROPHENYL]METHYL]-4-HYDROXY-4-OXO-1,4-AZAPHOSPHINANE-3-CARBOXYLIC ACID], 0.01 µM produced 67% inhibition and 0.02 µM produced 80% inhibition.

Turning to `COc1cc(-c2cc(F)ccc2CN2CCP(=O)(O)[C@](CCCCN)(C(=O)O)C2)ccc1F` [Example 201, (3S)-3-(4-AMINOBUTYL)-1-[[4-FLUORO-2-(4-FLUORO-3-METHOXYPHENYL)-PHENYL]METHYL]-4-HYDROXY-4-OXO-1,4-AZAPHOSPHINANE-3-CARBOXYLIC ACID], 0.01 µM produced 69% inhibition and at 0.02 µM the inhibition was 84%.

`NCCCC[C@@]1(C(=O)O)CN(Cc2ccc(O)cc2-c2cccs2)CCP1(=O)O` [Example 227, (3S)-3-(4-AMINOBUTYL)-4-HYDROXY-1-[(4-HYDROXY-2-THIOPHEN-2-YLPHENYL)METHYL]-4-OXO-1,4-AZAPHOSPHINANE-3-CARBOXYLIC ACID] came in with an inhibition at 0.01 µM of 84% and an inhibition at 0.02 µM of 91%.

`COc1cccc(-c2cc(F)ccc2CN2CCP(=O)(O)[C@](CCCCN)(C(=O)O)C2)n1` [Example 244, (3S)-3-(4-AMINOBUTYL)-1-[[4-FLUORO-2-(6-METHOXYPYRIDIN-2-YL)PHENYL]-METHYL]-4-HYDROXY-4-OXO-1,4-AZAPHOSPHINANE-3-CARBOXYLIC ACID] registered an inhibition at 0.01 µM of 49% and an inhibition at 0.02 µM of 68%.

In the case of `NCCCCC1(C(=O)O)CN(Cc2ccccc2-c2ccc(Cl)c(Cl)c2)CCP1(=O)O` (centres unmarked) [Example 175, 3-(4-AMINOBUTYL)-1-[[2-(3,4-DICHLOROPHENYL)PHENYL]METHYL]-4-HYDROXY-4-OXO-1,4-AZAPHOSPHINANE-3-CARBOXYLIC ACID], the inhibition at 0.01 µM was found to be 55% and the inhibition at 0.02 µM is 77%.

Molecule `NCCCC[C@@]1(C(=O)O)CN(Cc2ccccc2-c2cc[nH]c(=O)c2)CCP1(=O)O` [Example 204, (3S)-3-(4-AMINOBUTYL)-4-HYDROXY-4-OXO-1-[[2-(2-OXO-1H-PYRIDIN-4-YL)PHENYL]METHYL]-1,4-AZAPHOSPHINANE-3-CARBOXYLIC ACID] came in with an inhibition at 0.01 µM of 70% and an inhibition at 0.02 µM of 86%.

With `NCCCC[C@@]1(C(=O)O)CN(Cc2ccc(F)cc2-c2ccc(Cl)cc2)CCP1(=O)O` [Example 198, (3S)-3-(4-AMINOBUTYL)-1-[[2-(4-CHLOROPHENYL)-4-FLUOROPHENYL]METHYL]-4-HYDROXY-4-OXO-1,4-AZAPHOSPHINANE-3-CARBOXYLIC ACID], testing at 0.01 µM gave an inhibition of 72% and at 0.02 µM the inhibition was 91%.

In the case of `NCCCCC1(C(=O)O)CN(Cc2ccccc2-c2cccc3ccccc23)CCP1(=O)O` (centres unmarked) [Example 109, 3-(4-AMINOBUTYL)-4-HYDROXY-1-[(2-NAPHTHALEN-1-YLPHENYL)METHYL]-4-OXO-1,4-AZAPHOSPHINANE-3-CARBOXYLIC ACID], the inhibition at 0.01 µM came out at 58% and the inhibition at 0.02 µM stood at 71%.

The molecule `Cc1ccc(-c2cc(F)ccc2CN2CCP(=O)(O)[C@](CCCCN)(C(=O)O)C2)cc1` [Example 180, (3S)-3-(4-AMINOBUTYL)-1-[[4-FLUORO-2-(4-METHYLPHENYL)PHENYL]-METHYL]-4-HYDROXY-4-OXO-1,4-AZAPHOSPHINANE-3-CARBOXYLIC ACID] returned an inhibition at 0.01 µM of 54% and an inhibition at 0.02 µM of 73%.

As to `COc1cc(-c2ccccc2CN2CCP(=O)(O)[C@](CCCCN)(C(=O)O)C2)ccn1` [Example 203, (3S)-3-(4-AMINOBUTYL)-4-HYDROXY-1-[[2-(2-METHOXYPYRIDIN-4-YL)PHENYL]METHYL]-4-OXO-1,4-AZAPHOSPHINANE-3-CARBOXYLIC ACID], the inhibition at 0.01 µM came to 75% and the inhibition at 0.02 µM was found to be 89%.

Turning to `NCCCC[C@@]1(C(=O)O)CN(Cc2ccc(F)cc2-c2cc[nH]c(=O)c2)CCP1(=O)O` [Example 222, (3S)-3-(4-AMINOBUTYL)-1-[[4-FLUORO-2-(2-OXO-1H-PYRIDIN-4-YL)PHENYL]-METHYL]-4-HYDROXY-4-OXO-1,4-AZAPHOSPHINANE-3-CARBOXYLIC ACID], at 0.01 µM the inhibition was 73% and 0.02 µM produced 85% inhibition.

With `COc1cc(-c2cc(F)ccc2CN2CCP(=O)(O)[C@](CCCCN)(C(=O)O)C2)ccn1` [Example 221, (3S)-3-(4-AMINOBUTYL)-1-[[4-FLUORO-2-(2-METHOXYPYRIDIN-4-YL)PHENYL]-METHYL]-4-HYDROXY-4-OXO-1,4-AZAPHOSPHINANE-3-CARBOXYLIC ACID], the inhibition at 0.01 µM came out at 75% and the inhibition at 0.02 µM was 88%.

`COc1ccc(-c2ccccc2CN2CCP(=O)(O)C(CCCCN)(C(=O)O)C2)cn1` (centres unmarked) [Example 165, 3-(4-AMINOBUTYL)-4-HYDROXY-1-[[2-(6-METHOXYPYRIDIN-3-YL)PHENYL]-METHYL]-4-OXO-1,4-AZAPHOSPHINANE-3-CARBOXYLIC ACID] yielded an inhibition at 0.01 µM of 76% and an inhibition at 0.02 µM of 91%.

`NCCCC[C@@]1(C(=O)O)CN(Cc2ccccc2-c2cccs2)CCP1(=O)O` [Example 183, (3S)-3-(4-AMINOBUTYL)-4-HYDROXY-4-OXO-1-[(2-THIOPHEN-2-YLPHENYL)-METHYL]-1,4-AZAPHOSPHINANE-3-CARBOXYLIC ACID] returned an inhibition at 0.01 µM of 73% and an inhibition at 0.02 µM of 88%.

As for `COc1ccc(-c2cc(O)ccc2CN2CCP(=O)(O)[C@](CCCCN)(C(=O)O)C2)cn1` [Example 242, (3S)-3-(4-AMINOBUTYL)-4-HYDROXY-1-[[4-HYDROXY-2-(6-METHOXYPYRIDIN-3-YL)PHENYL]METHYL]-4-OXO-1,4-AZAPHOSPHINANE-3-CARBOXYLIC ACID], 0.01 µM produced 75% inhibition and testing at 0.02 µM gave an inhibition of 88%.

Regarding `NCCCC[C@@]1(C(=O)O)CN(Cc2ccccc2-c2cccnc2)CCP1(=O)O` [Example 184, (3S)-3-(4-AMINOBUTYL)-4-HYDROXY-4-OXO-1-[(2-PYRIDIN-3-YLPHENYL)-METHYL]-1,4-AZAPHOSPHINANE-3-CARBOXYLIC ACID], testing at 0.01 µM gave an inhibition of 67% and at 0.02 µM the inhibition was 95%.

The molecule `NCCCC[C@@]1(C(=O)O)CN(Cc2ccccc2-c2cncc3ccccc23)CCP1(=O)O` [Example 202, (3S)-3-(4-AMINOBUTYL)-4-HYDROXY-1-[(2-ISOQUINOLIN-4-YLPHENYL)-METHYL]-4-OXO-1,4-AZAPHOSPHINANE-3-CARBOXYLIC ACID] returned an inhibition at 0.01 µM of 74% and an inhibition at 0.02 µM of 87%.

As for `Cn1nccc1-c1ccccc1CN1CCP(=O)(O)[C@](CCCCN)(C(=O)O)C1` [Example 235, (3S)-3-(4-AMINOBUTYL)-4-HYDROXY-1-[[2-(2-METHYLPYRAZOL-3-YL)PHENYL]METHYL]-4-OXO-1,4-AZAPHOSPHINANE-3-CARBOXYLIC ACID], the inhibition at 0.01 µM came to 60% and 0.02 µM produced 77% inhibition.
